What all share (format): in vivo
The test system of series [1] is House Fly (Musca domestica). The experiment in a line: House fly glass vial (glass contact) assay. On the procedure:
(§1) Glass vials (20 ml scintillation vials) were treated with 0.44 ml of a solution of active ingredient in acetone. Each vial was rolled uncapped for ca. 10 minutes to allow the active ingredient to completely coat the vial and to allow for full drying of the acetone. Six insects or ticks were placed into each vial, with 5 vials per treatment rate. The vials are kept at 22° C. and are observed for treatment effects at various time intervals.

The subject of series [2] is Eastern Subterranean Termites (Reticulitérmes Flávipes). The experiment in a line: Activity against eastern subterranean termites via termite filter paper bait. On the procedure:
Toxicant treatments (0.1 and 0.3% test compound w/w) were applied to 4.25 cm (diam.) filter papers in acetone solution. Treatment levels (% test compound) were calculated on basis of a mean weight per filter paper of 106.5 mg. Treatment solutions were adjusted to provide the quantity of toxicant (mg) required per paper in […] of acetone. Acetone only was applied for untreated controls. Treated papers were vented to evaporate the acetone, moistened with 0.25 ml water, and placed in corresponding test arenas.
Termite bait bioassays were conducted in 100×15 mm Petri dishes with 1 teaspoon fine sand spread in a thin layer over the bottom of each dish. An additional 0.25 teaspoon sand was piled against the side of each dish. The sand was moistened with 2.7 ml water applied to the piled sand. Water was added to dishes as needed over the course of the bioassays to maintain high moisture content. Bioassays had one treated filter (on the sand) and 30 termite workers per test dish. Each treatment level was replicated in 3 test dishes. Test dishes were maintained at approximately 30° C. and 85% humidity for 14 days and observed daily for mortality.

Series [3] relates to Subterranean Termites (Reticulitermes flavipes). As to the kind of experiment: Termite soil incorporation assay. Particulars: 100 ppm after 9 days. On the procedure:
(§2) Soil was prepared by adding stock solutions (active dissolved in acetone) to 100 g sandy loam soil to make 1, 10, and 100 ppm batches. Jars of soils were rolled on a jar roller to mix thoroughly and then allowed to vent over night with the acetone evaporating off.
Subterranean termite bioassays were conducted in 50×15 mm Petri dishes and were prepared with a layer of 1% agar (2 ml) and then 2 g of dry treated soil. A 1 cm^2 piece of filter paper, moistened with 1 drop of distilled water was added to each dish as a source of cellulose food. Each dish was then infested with 15 eastern subterranean termite workers, Reticulitermes flavipes. Five replicates were setup per treatment rate. Mortality was observed daily up to 7 days with moribund and dead termites removed at each reading.

The subject of series [4] is Yellowfever Mosquito (Aedes aegypti). The experiment in a line: Yellowfever mosquito glass vial (glass contact) assay. Here is the method:
as §1

Series [5] has as its system Yellowfever Mosquitos (Aedes Aegypti), 4th instar larvae. As to the kind of experiment: Activity against yellowfever mosquitos via water treatment. On the procedure:
The test compound (1 Vol % in acetone) was applied to 9 ml distilled water In polystyrene plastic 6-well plates. Treatment rates were applied 1 and 10 ppm. Ten, 4th instar yellowfever mosquito larvae, Aedes aegypti, were added to each well in 1 ml of distilled water. The test dishes were maintained at 22° C. and observed daily for mortality, up to 5 days after treatment. Each treatment was replicated in 6 wells.

Series [6] has as its system Acrobat Ant (Crematogaster sp.). As to the kind of experiment: Acrobat ant soil incorporation assay. Here is the method:
as §2
Ant bioassays were conducted in 100×20 mm Petri dishes and were prepared with a layer of 1% agar (7 ml) and then 12.75 g of dry treated soil. A cotton pellet (#2) soaked with a 10% sugar solution was added to each dish in a micro-weigh boat as a source of moisture and food. Each dish was then infested with 15 acrobat ant workers, Crematogaster sp. Three replicates were setup per treatment rate. Mortality was observed daily up to 7 days with moribund and dead ants removed at each reading.

Series [7] shares this test system. As to the kind of experiment: Acrobat ant glass vial (glass contact) assay. On the procedure:
as §1

For series [8], the system named is Vetch Aphid (Megoura Viciae). As to the kind of experiment: Activity against vetch aphid, bean leaf disks in microtiterplates. Particulars: foliar, 144 h, leaf disks sprayed, 6 days. Here is the method: The active compounds were formulated in 1:3 DMSO:water. Bean leaf disks were placed into microtiterplates filled with 0.8% agar-agar and 2.5 ppm OPUS™. The leaf disks were sprayed with 2.5 μl of the test solution and 5 to 8 adult aphids were placed into the microtiterplates which were then closed and kept at 22-24° C. and 35-45% under fluorescent light for 6 days. Mortality was assessed on the basis of vital, reproduced aphids. Tests were replicated 2 times.

The subject of series [9] is Diamond Back Moth (plutella Xylostella). As to the kind of experiment: Activity against diamond back moth, cabbage leaf disk dip. The following applies: foliar, after 72 h, read-out: mortality in comparison with untreated controls. On the procedure: 13. Activity Against Diamond Back Moth (plutella Xylostella) The active compounds were formulated in 50:50 acetone:water and 0.1% (vol/vol) Alkamuls EL 620 surfactant. A 6 cm leaf disk of cabbage leaves was dipped in the test solution for 3 seconds and allowed to air dry in a Petri plate lined with moist filter paper. The leaf disk was inoculated with 10 third instar larvae and kept at 25-27° C. and 50-60% humidity for 3 days. Mortality was assessed after 72 h of treatment.

The subject of series [10] is Mediterranean Fruitfly (Ceratitis Capifata). The experiment in a line: Activity against Mediterranean fruitfly, eggs in microtiterplates. The following applies: 144 h, eggs sprayed, 6 days. Here is the method:
The active compounds were formulated in 1:3 DMSO:water. 50 to 80 eggs were placed into microtiterplates filled with 0.5% agar-agar and 14% diet in water. The eggs were sprayed with 5 μl of the test solution, the plates were sealed with pierced foils and kept at 27-29° C. and 75-85% humidity under fluorescent light for 6 days. Mortality was assessed on the basis of the agility of the hatched larvae. Tests were replicated 2 times.

In series [11] the test system is Boll Weevil (Anthonomus grandis). As to the kind of experiment: Activity against boll weevil, eggs in microtiterplates. The following applies: eggs sprayed, 3 to 5 days. Here is the method: The active compounds were formulated in 1:3 DMSO:water. 10 to 15 eggs were placed into microtiterplates filled with 2% agar-agar in water and 300 ppm formaline. The eggs were sprayed with 20 μl of the test solution, the plates were sealed with pierced foils and kept at 24-26° C. and 75-85% humidity with a day/night cycle for 3 to 5 days. Mortality was assessed on the basis of the remaining unhatched eggs or larvae on the agar surface and/or quantity and depth of the digging channels caused by the hatched larvae. Tests were replicated 2 times.

The test system of series [12] is Southern Armyworm (Spodoptera Eridanid), 2nd-3rd instar larvae. As to the kind of experiment: Southern armyworm, lima bean foliage dip. Particulars: foliar, 96 h, after 4 days, read-out: mortality in comparison with untreated controls. Here is the method:
The active compounds were formulated as a 10.000 ppm solution in a mixture of 35% acetone and water, which was diluted with water, if needed.
Sieva lima bean foliage, expanded to the first true leaves, were dipped and agitated in the test solution for 3 seconds and then allowed to dry in a fume hood. The treated plant was then placed in 25-cm plastic perforated zip enclosure bags, ten 2nd-instar larvae were added, and the bags sealed. After 4 days, observations were made of mortality, plant feeding, and of any interference with larval growth.

The test system of series [13] is Cowpea Aphid (Aphis Craccivora). The experiment in a line: Activity against cowpea aphid, sprayed potted cowpea plants. The following applies: population reduction recorded after 24, 72 and 120 hours, read-out: mortality in comparison with untreated controls. Here is the method:
The active compounds were formulated in 50:50 acetone:water. Potted cowpea plants colonized with 100-150 aphids of various stages were sprayed after the pest population has been recorded. Population reduction was recorded after 24, 72, and 120 hours.

For series [14], the system named is Cotton Aphid (Aphis Gossypil), mixed life stages. The experiment in a line: Cotton aphid, mixed life stages, cotton cotyledon dip. Particulars: 120 h, after 5 days, read-out: mortality in comparison with untreated controls. The text has this:
The active compounds were formulated in 50:50 acetone:water and 100 ppm Kinetic® surfactant.
Cotton plants at the cotyledon stage were infested prior to treatment by placing a heavily infested leaf from the main aphid colony on top of each cotyledon. The aphids were allowed to transfer overnight and the host leaf was removed. The infested cotyledons were then dipped and agitated in the test solution for 3 seconds and allowed to dry in a fume hood. Test plants were maintained under fluorescent lighting in a 24-hr photoperiod at 25° C. and 20-40% relative humidity. Aphid mortality on the treated plants, relative to mortality on untreated check plants, was determined after 5 days.

Series [15] concerns Green Peach Aphid (Myzus Persicae). As to the kind of experiment: Green peach aphid, pepper plant leaf dip. Particulars: foliar, 120 h, after 5 days, read-out: mortality in comparison with untreated controls. On the procedure: (§3) The active compounds were formulated in 50:50 acetone:water and 100 ppm Kinetic™ surfactant.
Pepper plants in the 2nd leaf-pair stage (variety California Wonder) were infested with approximately 40 laboratory-reared aphids by placing infested leaf sections on top of the test plants. The leaf sections were removed after 24 hr. The leaves of the intact plants were dipped into gradient solutions of the test compound and allowed to dry. Test plants were maintained under fluorescent light (24 hour photoperiod) at about 25° C. and 20-40% relative humidity. Aphid mortality on the treated plants, relative to mortality on check plants, was determined after 5 days.

Series [16] relates to Tobacco Budworm (Heliothis Virescens). As to the kind of experiment: Activity against tobacco budworm, eggs in microtiterplates. The following applies: 144 h, eggs sprayed, 6 days. On the procedure: The active compounds were formulated in 1:3 DMSO:water. 15 to 25 eggs were placed into microtiterplates filled with diet. The eggs were sprayed with 10 μl of the test solution, the plates were sealed with pierced foils and kept at 27-29° C. and 75-85% humidity under fluorescent light for 6 days. Mortality was assessed on the basis of the agility and of comparative feeding of the hatched larvae. Tests were replicated 2 times.

Series [17] deals with Silverleaf whitefly (Bemisia Argentifolii). As to the kind of experiment: Silverleaf whitefly, cotton cotyledon dip. The following applies: 72 h, 3 days after treatment, read-out: mortality in comparison with untreated controls. Here is the method: as §3
Selected cotton plants were grown to the cotyledon state (one plant per pot). The cotyledons were dipped into the test solution to provide complete coverage of the foliage and placed in a well-vented area to dry. Each pot with treated seedling was placed in a plastic cup and 10 to 12 whitefly adults (approximately 3-5 day old) were introduced. The insects were colleted using an aspirator and an 0.6 cm, non-toxic Tygon tubing connected to a barrier pipette tip. The tip, containing the collected insects, was then gently inserted into the soil containing the treated plant, allowing insects to crawl out of the tip to reach the foliage for feeding. The cups were covered with a re-usable screened lid (150 micron mesh polyester screen PeCap from Tetko Inc). Test plants were maintained in the holding room at about 25° C. and 20-40% relative humidity for 3 days avoiding direct exposure to the fluorescent light (24 hour photoperiod) to prevent trapping of heat inside the cup. Mortality was assessed 3 days after treatment of the plants.

For series [18], the system named is Colorado Potato Beetle (Leptinotarsa Decemlineata). As to the kind of experiment: Colorado potato beetle, potato leaf dip in Petri dishes. The following applies: foliar, 120 h, 5 days after treatment, read-out: mortality in comparison with untreated controls. Here is the method:
Potato plants were utilized for bioassays. Excised plant leaves were dipped into 1:1 acetone/water dilutions of the active compounds. After the leaves had dried, they were individually placed onto water-moistened filter paper on the bottoms of Petri dishes. Each dish was infested with 5-7 larvae and covered with a lid. Each treatment dilution was replicated 4 times. Test dishes were held at approximately 27° C. and 60% humidity. Numbers of live and morbid larvae were assessed in each dish at 5 days after treatment application, and percent mortality was calculated.

In series [19] the test system is 2-Spotted Spider Mite (Tetranychus Urticae, OP-Resistant Strain). The experiment in a line: 2-spotted spider mite, lima bean plant dip. Particulars: 300 ppm; after 5 days. On the procedure: as §3
Sieva lima bean plants with primary leaves expanded to 7-12 cm were infested by placing on each a small piece from an infested leaf (with about 100 mites) taken from the main colony. This was done at about 2 hours before treatment to allow the mites to move over to the test plant to lay eggs. The piece of leaf used to transfer the mites was removed. The newly-infested plants were dipped in the test solution and allowed to dry. The test plants were kept under fluorescent light (24 hour photoperiod) at about 25° C. and 20-40% relative humidity. After 5 days, one leaf was removed and mortality counts were made.

For `O=S(=O)(NCc1ccnc2ccccc12)c1ccc(-c2ccc(Cl)cc2Cl)cc1` [I-1], the mortality in [1] (10 ppm after 48 hours) turned out to be 30%; in series [2] (0.1% w/w after 7 days), 99%; in [3] it was 95%; in series [4] (10 ppm after 48 hours) it was 37%; in series [5] (1 ppm after 3 days), 100%; in series [6] (100 ppm after 7 days) it was 36%. In [7] (100 ppm after 4 days), this compound registered a mortality of 7%.

For the compound `O=S(=O)(NCc1ccnc2ccccc12)c1ccc(-c2cc(Cl)ccc2Cl)cc1` [I-8, 2′,5′-dichloro-biphenyl-4-sulfonicacid (quinoline-4-ylmethyl)-amide], the mortality at 2500 ppm in series [8], in series [10], in [11] and in [16] was no less than 75% throughout. In addition, the mortality at 300 ppm is no less than 75% in series [9]; no less than 80% in series [12]; no less than 80% in series [13]; no less than 80% in series [14]; no less than 75% in series [15]; no less than 70% in series [17].

With `O=S(=O)(NCc1ccnc2ccccc12)c1ccc(-c2ccc(C(F)(F)F)cc2C(F)(F)F)cc1` [I-10], the mortality in series [1] (10 ppm after 24 hours) amounted to 80%; in series [2] (0.3% w/w after 14 days), 86%; in series [3], 84%; in series [4] (10 ppm after 24 hours) it was 100%; in [5] (10 ppm after 5 days), 52%; in series [6] (100 ppm after 3 days), 100%. The mortality in [7] (100 ppm after 2 days) turned out to be 86%.

On to `O=S(=O)(NCc1ccnc2c(Cl)cccc12)c1ccc(-c2ccc(C(F)(F)F)cc2C(F)(F)F)cc1` [I-22, 2′,4′-bis-trifluoromethyl-biphenyl-4-sulfonic acid (8-chloroquinoline-4-yl-methyl)-amide], for which the mortality at 300 ppm is no less than 80% in [12] and no less than 75% in series [18].

Regarding `Cc1cc(C(F)(C(F)(F)F)C(F)(F)F)ccc1-c1ccc(S(=O)(=O)NCc2ccnc3ccccc23)cc1` [I-46], in series [19], the “mortality in comparison with untreated controls” value is “at least 70%”.

With `O=S(=O)(NCc1ccnc2c(F)cccc12)c1ccc(Br)cc1` [II-5, 4-bromo-N-(8-fluoro-quinolin-4-ylmethyl)-benzenesulfonamide], the mortality at 2500 ppm in [11] was no less than 75%.

The mortality is the percentage killed.

The record behind these values is patent US20090029855A1, “Quinoline Derivatives and Their Use as Pesticides” (priority 2006, published 2009).
